In paper PMC11359702, “Synthesis and Biochemical Evaluation of Ethanoanthracenes and Related Compounds: Antiproliferative and Pro-Apoptotic Effects in Chronic Lymphocytic Leukemia (CLL)” (Pharmaceuticals, 2024):
Where “and” joins values, the source holds several entries; their conditions need not be identical. Identical values can stand only once. Like-named read-outs stand apart in the source and are kept apart here.

Columns and labels:
[1] = test system: 786-0; assay: NCI-60 five-dose assay; type: cell-based, human
Description: (§1) A number of our most promising compounds identified through preliminary cell viability testing (23c, 23d, 23f, 23h, 23l, 23m, 23n, 23o, 24f, 24l, 25n and 26n) were selected for NCI drug screening in the 60-cell-line panel. The panel includes nine subcategories based on cancer tissue types, which include leukemia, ovarian, central nervous system, breast, lung, prostate, skin, renal and colon cancer. The compounds were initially assessed in a one-dose assay at a fixed treatment concentration of 10 µM. The compounds selected for further investigation were progressed to a five-dose assay across the concentration ranges of 0.01, 0.1, 1, 10 and 100 µM [72]. The endpoints assessed in the screening protocol were GI50, TGI and LC50 [72].

[2] = test system: DU-145; assay: NCI-60 five-dose assay; type: cell-based, human
Description: as §1

[3] = test system: HOP-62; assay: NCI-60 five-dose assay; type: cell-based, human
Description: as §1

[4] = test system: HOP-92; assay: NCI-60 five-dose assay; type: cell-based, human
Description: as §1

[5] = test system: IGROV1; assay: NCI-60 five-dose assay; type: cell-based, human
Description: as §1

[6] = test system: MDA-MB-468; assay: NCI-60 five-dose assay; type: cell-based, human
Description: as §1

[7] = test system: OVCAR-3; assay: NCI-60 five-dose assay; type: cell-based, human
Description: as §1

[8] = test system: OVCAR-5; assay: NCI-60 five-dose assay; type: cell-based, human
Description: as §1

[9] = test system: PC-3; assay: NCI-60 five-dose assay; type: cell-based, human
Description: as §1

[10] = test system: RXF 393; assay: NCI-60 five-dose assay; type: cell-based, human
Description: as §1

[11] = test system: SF539; assay: NCI-60 five-dose assay; type: cell-based, human
Description: as §1

[12] = test system: SK-MEL-5; assay: NCI-60 five-dose assay; type: cell-based, human
Description: as §1

[13] = test system: SK-OV-3; assay: NCI-60 five-dose assay; type: cell-based, human
Description: as §1

[14] = test system: SN12C; assay: NCI-60 five-dose assay; type: cell-based, human
Description: as §1

[15] = test system: SNB-19; assay: NCI-60 five-dose assay; type: cell-based, human
Description: as §1

[16] = test system: CCRF-CEM; assay: NCI-60 five-dose assay; type: cell-based, human
[17] = test system: HL-60(TB); assay: NCI-60 five-dose assay; type: cell-based, human
[18] = test system: SR; assay: NCI-60 five-dose assay; type: cell-based, human
[19] = test system: HG-3 cells; assay: Annexin V/PI apoptosis assay (FACS); type: cell-based, human
Description: (§2) The pro-apoptotic effects of selected nitrovinylethanoanthracene compounds 20a and 20f and anthracene chalcones 23a and 25n in HG-3 cells and PGA-1 cells was then investigated using FITC (fluorescein isothiocyanate), Annexin V/PI (propidium iodide) and FACS (fluorescence-activated cell sorting) analysis to characterize the mode of cellular death induced. Apoptosis was assessed as % total apoptosis (total of early (Q3) and late (Q2) apoptosis).
(§3) CLL cells PGA-1 and HG-3 (1 × 10^6 cells/mL) were treated at 37 °C with either the vehicle (1% (v/v) DMSO) or the ethanoanthracene compounds 20a, 20f, 23a and 25n (10 µM, 5 µM and 1 µM) for 48 h, following the protocol previously described. The cells were then harvested via centrifugation at 400× g in a temperature-controlled Sorvall centrifuge. The cells were rinsed with Ca^2+ Annexin-V-binding buffer (0.1 M HEPES, pH 7.4; 0.14 M NaCl; 25 mM CaCl2, 0.5 mL). The samples were resuspended in FITC Annexin V (diluted 1:33 in Ca^2+ Annexin V-binding buffer, 50 µL) and incubated for 10 min (on ice and protected from light). The samples were washed with Annexin-V-binding buffer and resuspended in a PI solution (0.5 µg/mL, 500 µL) and analyzed within 1 h using a BD Accuri C6 flow cytometer counting 10,000 cells using the FlowJo software Version 10 (FlowJo LLC, Ashland, OR, USA).

[20] = test system: PGA-1 cells; assay: Annexin V/PI apoptosis assay (FACS); type: cell-based, human; settings: PGA-1, 10 µM
Description: as §2, §3

[21] = test system: healthy-donor peripheral blood mononuclear cells (PBMCs); assay: Annexin V/PI assay in donor PBMCs; type: cell-based; settings: 48 h
From the text: Whole blood samples from healthy donors (×5) were isolated, prepared and treated following the protocol previously described. The percentage of apoptosis observed in the treatment of isolated donor PBMCs with nitrovinylethanoanthracene 20a is concentration-dependent (Figure 11A). […] For ethanoanthracene 23a, the percentage of total apoptosis observed is illustrated in Figure 11B. […] The percentage of total apoptosis observed in the treatment of isolated donor PBMCs with the anthracene–chalcone 25n (normalized against vehicle 0.5% v/v DMSO) is illustrated in Figure 11C, and the dose-response behavior was also concentration-dependent, with compound 25n moderately toxic to healthy-donor PBMCs when treated at a 5.00 µM concentration (39%).
The human peripheral blood mononuclear cells (PBMCs) were generated as follows: peripheral blood was obtained from healthy donors (n = 2) after informed consent was received. The blood was then placed into a 50-mL falcon tube and diluted with an equal volume of phosphate-buffered saline (PBS). PBMCs were isolated using density-gradient centrifugation with LymphoPrep, as described previously. The cells were resuspended in RPMI media containing 10% FBS and 1% penicillin/streptomycin (P/S). The cells were counted using a haemocytometer and seeded into 96 well plates at a density of 1 × 10^5 cells/well (200 µL), and they were incubated at 37 °C for 1 h prior to compound treatment. The Annexin V/PI assay was used as a preliminary method of assessing the selective toxicity of the above compounds when compared with a previous alamarBlue cell viability assay in CLL cell lines. The assay was carried out as described above for the Annexin V/PI assay previously described above, and it was completed in triplicate on two independent days. Approval for this study was obtained from the School of Pharmacy and Pharmaceutical Sciences Trinity College Dublin Research Ethics Committee (2020-06-01-MS).

| SMILES | GI50 ([1]; Homo sapiens) [nM] | GI50 ([2]; Homo sapiens) [nM] | GI50 ([3]; Homo sapiens) [nM] | GI50 ([4]; Homo sapiens) [nM] | GI50 ([5]; Homo sapiens, IGROV-1) [nM] | GI50 ([6]; Homo sapiens) [nM] | GI50 ([7]; Homo sapiens) [nM] | GI50 ([8]; Homo sapiens) [nM] | GI50 ([9]; Homo sapiens) [nM] | GI50 ([10]; Homo sapiens) [nM] | GI50 ([11]; Homo sapiens, SF-539) [nM] | GI50 ([12]; Homo sapiens) [nM] | GI50 ([13]; Homo sapiens) [nM] | GI50 ([14]; Homo sapiens) [nM] | GI50 ([15]; Homo sapiens) [nM] | GI50 [16] [nM] | GI50 ([17]; HL-60(TB)) [nM] | GI50 [18] [nM] | total apoptosis (early Q3 + late Q2) ([19]; HG-3, 1 µM) [%] | total apoptosis (early Q3 + late Q2) ([19]; HG-3, 10 µM) | other results |
| --- | --- | --- | --- | --- | --- | --- | --- | --- | --- | --- | --- | --- | --- | --- | --- | --- | --- | --- | --- | --- | --- |
| O=C(/C=C/C12c3ccccc3C(c3ccccc31)C1C(=O)NC(=O)C12)c1ccc(F)cc1 (racemic) [Compound 23h] | 2440 | 1770 | 2450 | 1330 | 2100 | 1880 | 1440 | 1600 | 1420 | 1270 | 1690 | 1950 | 5280 | 2340 | 2680 | – | – | – | – | – | – |
| O=C(/C=C/C12c3ccccc3C(c3ccccc31)C1C(=O)NC(=O)C12)c1ccc(Cl)cc1 (racemic) [Compound 23l, (E)-9-(3-(4-Chlorophenyl)-3-oxoprop-1-en-1-yl)-9,10-dihydro-9,10-[3,4]epipyrroloanthracene-12,14-dione] | – | – | – | – | – | – | – | – | – | – | – | – | – | – | – | 1660 | 1470 | 2150 | – | – | GI50 [1]: 1730 nM; GI50 [2]: 1670 nM; GI50 [3]: 1690 nM; GI50 [4]: 1320 nM; GI50 [5]: 1670 nM; GI50 [6]: 1700 nM; GI50 [7]: 1630 nM; GI50 [8]: 1580 nM; GI50 [9]: 1390 nM; GI50 [10]: 1200 nM; GI50 [11]: 1510 nM; GI50 [12]: 1700 nM; GI50 [13]: 1850 nM; GI50 [14]: 1560 nM; GI50 [15]: 1580 nM |
| O=C(C=CC12c3ccccc3C(c3ccccc31)C1C(=O)NC(=O)C12)c1ccc(Br)cc1 (stereo not drawn) [Compound 23a, 9-(E)-3-(4-Bromophenyl)-3-oxoprop-1-en-1-yl)-9,10-dihydro-9,10-[3,4]epipyrroloanthracene-12,14-dione] | – | – | – | – | – | – | – | – | – | – | – | – | – | – | – | – | – | – | 33 | 82–95% and 95% | total apoptosis (early Q3 + late Q2) [20]: 87–97% and 89%; total apoptosis (toxicity) in healthy-donor PBMCs ([21]; 5 µM): 28%; total apoptosis (toxicity) in healthy-donor PBMCs ([21]; 1.25–2.5 µM): 5–14% |
| O=C(C=CC12c3ccccc3C(c3ccccc31)C1C(=O)N(c3ccc(Cl)cc3)C(=O)C12)c1ccccn1 (stereo not drawn) [Compound 25n, (E)-13-(4-Chlorophenyl)-9-(3-oxo-3-(pyridin-2-yl)prop-1-en-1-yl)-9,10-dihydro-9,10-[3,4]epipyrroloanthracene-12,14-dione] | 216 | 410 | 587 | 1190 | 236 | 627 | 222 | 568 | 436 | 222 | 316 | 1080 | 3300 | 415 | 425 | 321 | 292 | 284 | 37 | 82–95% and 93% | GI50 ([16]; Homo sapiens): 320 nM; GI50 ([17]; Homo sapiens, HL-60, HL-60(TB)): 290 nM; GI50 ([18]; Homo sapiens): 280 nM; total apoptosis (early Q3 + late Q2) [20]: 87–97% and 87%; total apoptosis (toxicity) in healthy-donor PBMCs ([21]; 5 µM): 39% |
